# Test results: ChEMBL document CHEMBL5728583, “Galactoside inhibitor of galectins” (2021)
# Tests used:
# Galectin-3 = Galectin-3 (Homo sapiens, UniProt P17931); test: fluorescence anisotropy assay: The affinity of Example 1-33 for galectins were determined by a fluorescence anisotropy assay where the compound was used as an inhibitor of the interaction between galectin and a fluorescein tagged saccharide probe as described Sörme, P., Kahl-Knutsson, B., Huflejt, M., Nilsson, U. J., and Leffler H. (2004) Fluorescence polarization as an analytical tool to evaluate galectin-ligand interactions. Anal. Biochem. 334: 36-47, (Sörme et al., 2004) and Monovalent interactions of Galectin-1 By Salomonsson, Emma; Larumbe, Amaia; Tejler, Johan; Tullberg, Erik; Rydberg, Hanna; Sundin, Anders; Khabut, Areej; Frejd, Torbjorn; Lobsanov, Yuri D.; Rini, James M.; et al, From Biochemistry (2010), 49(44), 9518-9532, (Salomonsson et al., 2010).
# Sequence of Galectin-3 (P17931 whole entry): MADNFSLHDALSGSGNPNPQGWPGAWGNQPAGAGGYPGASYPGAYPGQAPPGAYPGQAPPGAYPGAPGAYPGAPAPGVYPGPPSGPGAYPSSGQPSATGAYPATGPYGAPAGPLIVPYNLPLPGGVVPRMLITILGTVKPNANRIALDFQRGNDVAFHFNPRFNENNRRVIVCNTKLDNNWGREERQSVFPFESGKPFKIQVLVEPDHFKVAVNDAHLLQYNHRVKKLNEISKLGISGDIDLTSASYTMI
# Galectin-1 = Galectin-1 (Homo sapiens, UniProt P09382); test: fluorescence anisotropy assay: The affinity of Example 1-33 for galectins were determined by a fluorescence anisotropy assay where the compound was used as an inhibitor of the interaction between galectin and a fluorescein tagged saccharide probe as described Sörme, P., Kahl-Knutsson, B., Huflejt, M., Nilsson, U. J., and Leffler H. (2004) Fluorescence polarization as an analytical tool to …
# Sequence of Galectin-1 (P09382 whole entry): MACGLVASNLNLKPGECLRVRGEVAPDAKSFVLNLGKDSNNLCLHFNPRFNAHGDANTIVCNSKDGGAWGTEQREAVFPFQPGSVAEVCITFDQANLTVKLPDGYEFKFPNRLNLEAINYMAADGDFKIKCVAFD
smiles,measurement,setting,value
OC[C@H]1O[C@H](Sc2ccc(Cl)c(Cl)c2)[C@H](O)[C@@H](n2cc(-c3nc(O)cs3)nn2)[C@H]1O,Kd,Galectin-3,1700 nM
same,Kd,Galectin-1,650 nM
